Laboratory results reported in paper PMC10458893, “Design of Protegrin-1 Analogs with Improved Antibacterial Selectivity” (Pharmaceutics, 2023).
Converted amounts (≈) assume the structure as drawn. Where two headings read alike, the source gives them in different places. Positions of bridges follow the written chain, without caps; N, C: chain ends. Residues, ends and D or L forms follow the SMILES beside them.

Columns and labels:
E. coli ATCC 25922 = type: cell-based; conditions: ATCC 25922, 24 h
Description: (§1) The antimicrobial activity of the peptides was determined using two-fold serial dilutions in sterile 96-well flat-bottom polystyrene microplates (Eppendorf, Hamburg, Germany) (Cat. No. 0030730011), as previously described. The following strains of bacteria were used: E. coli ATCC 25922, E. coli ML35p (ATCC collection), E. coli BW 25113 (Keio collection), Pseudomonas aeruginosa PAO1 (ATCC collection), P. aeruginosa ATCC 27853, Klebsiella pneumoniae ATCC 700603, Staphylococcus aureus 209P (ATCC collection), S. aureus ATCC 29213, and Micrococcus luteus B-1314 (VKM collection). Acinetobacter baumannii (strain XDR CI 2675) was provided by the I.M. Sechenov First Moscow State Medical University hospital. After a 24 h incubation period, the metabolic activity of the bacteria was assessed by adding 20 µL of a redox indicator, resazurin (Sigma-Aldrich, St. Louis, MO, USA), at a concentration of 0.1 mg/mL, to the wells. The plate was then incubated for a further two hours. The minimum inhibitory concentration (MIC) was determined as the lowest concentration of the peptide at which no color change in the resazurin indicator was observed. The results were presented as median values, which were determined based on at least three independent experiments carried out in triplicate.

P. aeruginosa ATCC 27853 = type: cell-based, Pseudomonas aeruginosa; conditions: ATCC 27853, 24 h
Description: as §1

P. aeruginosa PAO1 = type: cell-based, Pseudomonas aeruginosa; conditions: PAO1, 24 h
Description: as §1

[1] = tested on: K. pneumoniae ATCC 700603; type: cell-based, Klebsiella pneumoniae; conditions: ATCC 700603, 24 h
Description: as §1

S. aureus 209P = type: cell-based, Staphylococcus aureus; conditions: 24 h
Description: as §1

S. aureus ATCC 29213 = type: cell-based, Staphylococcus aureus; conditions: ATCC 29213, 24 h
Description: as §1

M. luteus B-1314 = type: cell-based, Micrococcus luteus; conditions: B-1314, 24 h
Description: as §1

[2] = tested on: freshly isolated human erythrocytes (hRBCs); experiment: Hemolysis assay (hemoglobin release); type: cell-based
Description: To assess the hemolytic activity of the compounds, freshly isolated human erythrocytes (hRBCs) were used according to the methodology described in a previous study. Melittin was used as a positive peptide control that induces significant hemolysis. Isotonic phosphate buffer (PBS) served as a negative control, while 0.1% Triton X-100 solution was used as a control for complete hemolysis.

[3] = tested on: human keratinocyte cell line (HaCaT); experiment: Cytotoxicity MTT assay; type: cell-based
Description: In order to evaluate the cytotoxicity of the peptides against a human keratinocyte cell line (HaCaT, Cat. No. 300493) (Cell Lines Service, Köln, Germany), the colorimetric 3-(4,5-dimethylthiazol-2-yl)-2,5-diphenyltetrazolium bromide (MTT) dye reduction assay was performed, as described in a previous publication. Wells containing no peptide were used as a 100% survival control. Each peptide was tested in two separate experiments to ensure the reliability of the results.

[4] = tested on: Acinetobacter baumannii (strain XDR CI 2675); type: cell-based
Description: as §1

E. coli BW 25113 = type: cell-based; conditions: two-fold serial dilutions, 24 h incubation, resazurin read-out; median of at least three independent experiments in triplicate
Description: as §1

E. coli ML35p = type: cell-based
Description: as §1

SMILES | MIC, E. coli ATCC 25922 (E. coli ATCC 25922) [µM] | MIC, P. aeruginosa ATCC 27853 (P. aeruginosa ATCC 27853) [µM] | MIC, P. aeruginosa PAO1 (P. aeruginosa PAO1) [µM] | MIC, K. pneumoniae ATCC 700603 [1] [µM] | MIC, S. aureus 209P (S. aureus 209P) [µM] | MIC, S. aureus ATCC 29213 (S. aureus ATCC 29213) [µM] | MIC, M. luteus B-1314 (M. luteus B-1314) [µM] | Hemolytic activity, % (64 μM) ([2]; red cells of human, 64) | Cell Viability, % (128 μM) ([3]; 18 h, 128) | Hemolytic activity, % (64 μM) ([2]; 64 μM peptide, 1.5 h incubation, hemoglobin release, fresh hRBCs, 0.1% Triton X-100 = complete hemolysis, mean ± SD of two independent experiments) | Cell Viability, % (128 μM) ([3]; 128 μM peptide, HaCaT, MTT assay, 18 h incubation (legend; text says 24 h), mean ± SD of two independent experiments) | MIC, A. baumannii ([4]; strain XDR CI 2675, 24 h) [µM] | MIC, E. coli BW 25113 (E. coli BW 25113) [µM] | MIC, E. coli ML35p (E. coli ML35p; ML35p, 24 h) [µM] | MIC, A. baumannii ([4]; strain XDR CI 2675, two-fold serial dilutions, 24 h incubation, resazurin read-out, median of at least three independent experiments in triplicate) [µM] | MIC, E. coli ML35p (E. coli ML35p; two-fold serial dilutions, 24 h incubation, resazurin read-out, median of at least three independent experiments in triplicate) [µM]
CC(C)C[C@H](NC(=O)CNC(=O)CNC(=O)[C@@H](N)CCCNC(=N)N)C(=O)N[C@H]1CSSC[C@@H](C(=O)N[C@H](C(=O)NCC(=O)N[C@@H](CCCNC(=N)N)C(N)=O)C(C)C)NC(=O)[C@H](C(C)C)NC(=O)[C@@H]2CSSC[C@H](NC(=O)[C@H](Cc3ccc(O)cc3)NC1=O)C(=O)N[C@@H](CCCNC(=N)N)C(=O)NCC(=O)N[C@@H](CCCNC(=N)N)C(=O)N[C@@H](Cc1ccccc1)C(=O)N2 [Iseganan, reference compound] (H-RGGLCYCRGRFCVCVGR-NH2; disulfide 5-14, 7-12) | 0.5 (≈ 0.95 µg/mL) | 4 (≈ 7.6 µg/mL) | 8 (≈ 15.2 µg/mL) | 4 (≈ 7.6 µg/mL) | 2 (≈ 3.8 µg/mL) | 4 (≈ 7.6 µg/mL) | 0.5 (≈ 0.95 µg/mL) | 99.6 (±0.54) % | 19.5 (±7.18) % | – | – | – | – | – | – | –
CC[C@H](C)[C@H](NC(=O)CN)C(=O)NCC(=O)N[C@@H](C)C(=O)N[C@H](C(=O)N[C@@H](CC(C)C)C(=O)N[C@@H](CCCCN)C(=O)N[C@H](C(=O)N[C@@H](CC(C)C)C(=O)N[C@H](C(=O)N[C@H](C(=O)NCC(=O)N[C@@H](CC(C)C)C(=O)N1CCC[C@H]1C(=O)N[C@@H](C)C(=O)N[C@@H](CC(C)C)C(=O)N[C@H](C(=O)N[C@@H](CO)C(=O)N[C@@H](Cc1c[nH]c2ccccc12)C(=O)N[C@H](C(=O)N[C@@H](CCCCN)C(=O)N[C@@H](CCCNC(=N)N)C(=O)N[C@@H](CCCCN)C(=O)N[C@@H](CCCNC(=N)N)C(=O)N[C@@H](CCC(N)=O)C(=O)N[C@@H](CCC(N)=O)C(N)=O)[C@@H](C)CC)[C@@H](C)CC)[C@@H](C)O)[C@@H](C)O)C(C)C)C(C)C [Melittin, reference compound] | – | – | – | – | – | – | – | – | – | 96.0 (±7.12) % | 4.1 (± 4.07) % | – | – | – | – | –
CC(C)[C@H](NC(=O)[C@@H]1CSSC[C@H](NC(=O)[C@H](C)NC(=O)[C@H](CCCNC(=N)N)NC(=O)CNC(=O)CNC(=O)[C@@H](N)CCCNC(=N)N)C(=O)N[C@@H](Cc2ccc(O)cc2)C(=O)N[C@H]2CSSC[C@H](NC(=O)[C@H](Cc3ccccc3)NC(=O)[C@H](CCCNC(=N)N)NC(=O)[C@H](CCCNC(=N)N)NC(=O)[C@H](CCCNC(=N)N)NC2=O)C(=O)N[C@@H](C)C(=O)N1)C(=O)NCC(=O)N[C@@H](CCCNC(=N)N)C(=O)O [[L5A,V14A]] (H-RGGRACYCRRRFCACVGR-OH; disulfide 6-15, 8-13; N-terminus and C-terminus assumed) | 0.5 (≈ 1.04 µg/mL) | 1 (≈ 2.09 µg/mL) | 1 (≈ 2.09 µg/mL) | 8 (≈ 16.7 µg/mL) | 4 (≈ 8.35 µg/mL) | >32 | 4 (≈ 8.35 µg/mL) | 4.2 (±1.08) % | 38.3 (± 7.19) % | – | – | 0.25 (≈ 0.522 µg/mL) | 0.5 (≈ 1.04 µg/mL) | 0.5 (≈ 1.04 µg/mL) | – | –
CC(C)[C@@H]1NC(=O)[C@@H]2CSSC[C@H](NC(=O)[C@H](Cc3ccc(O)cc3)NC(=O)[C@@H](NC(=O)[C@H](C)NC(=O)[C@H](CCCNC(=N)N)NC(=O)CNC(=O)CNC(=O)[C@@H](N)CCCNC(=N)N)CSSC[C@@H](C(=O)N[C@@H](C)C(=O)NCC(=O)N[C@@H](CCCNC(=N)N)C(=O)O)NC1=O)C(=O)N[C@@H](CCCNC(=N)N)C(=O)N[C@@H](CCCNC(=N)N)C(=O)N[C@@H](CCCNC(=N)N)C(=O)N[C@@H](Cc1ccccc1)C(=O)N2 [[L5A,V16A]] (H-RGGRACYCRRRFCVCAGR-OH; disulfide 6-15, 8-13; N-terminus and C-terminus assumed) | 0.5 (≈ 1.04 µg/mL) | 1 (≈ 2.09 µg/mL) | 1 (≈ 2.09 µg/mL) | 8 (≈ 16.7 µg/mL) | 4 (≈ 8.35 µg/mL) | >32 | 4 (≈ 8.35 µg/mL) | 3.6 (±1.72) % | 17.0 (± 2.18) % | – | – | 0.25 (≈ 0.522 µg/mL) | 0.5 (≈ 1.04 µg/mL) | 0.5 (≈ 1.04 µg/mL) | – | –
CC(C)C[C@H](NC(=O)[C@H](CCCNC(=N)N)NC(=O)CNC(=O)CNC(=O)[C@@H](N)CCCNC(=N)N)C(=O)N[C@H]1CSSC[C@@H](C(=O)N[C@@H](CCCNC(=N)N)C(=O)NCC(=O)N[C@@H](CCCNC(=N)N)C(=O)O)NC(=O)[C@H](C(C)C)NC(=O)[C@@H]2CSSC[C@H](NC(=O)[C@H]([C@@H](C)O)NC1=O)C(=O)N[C@@H](CCCNC(=N)N)C(=O)N[C@@H](CCCNC(=N)N)C(=O)N[C@@H](CCCNC(=N)N)C(=O)N[C@@H](Cc1ccccc1)C(=O)N2 [[Y7T,V16R]] (H-RGGRLCTCRRRFCVCRGR-OH; disulfide 6-15, 8-13; N-terminus and C-terminus assumed) | 8 (≈ 17.2 µg/mL) | >32 | >32 | >32 | >32 | >32 | 4 (≈ 8.61 µg/mL) | 1.4 (±0.66) % | 72.8 (± 5.46) % | – | – | 4 (≈ 8.61 µg/mL) | 8 (≈ 17.2 µg/mL) | 4 (≈ 8.61 µg/mL) | – | –
CC(C)C[C@H](NC(=O)[C@H](CCCNC(=N)N)NC(=O)CNC(=O)CNC(=O)[C@@H](N)CCCNC(=N)N)C(=O)N[C@H]1CSSC[C@@H](C(=O)N[C@H](C(=O)NCC(=O)N[C@@H](CCCNC(=N)N)C(=O)O)C(C)C)NC(=O)[C@H](C(C)C)NC(=O)[C@@H]2CSSC[C@H](NC(=O)[C@H]([C@@H](C)O)NC1=O)C(=O)N[C@@H](CCCNC(=N)N)C(=O)N[C@@H](CCCNC(=N)N)C(=O)N[C@@H](CCCNC(=N)N)C(=O)N[C@@H](Cc1ccccc1)C(=O)N2 [[Y7T]] (H-RGGRLCTCRRRFCVCVGR-OH; disulfide 6-15, 8-13; N-terminus and C-terminus assumed) | 1 (≈ 2.09 µg/mL) | 2 (≈ 4.19 µg/mL) | 2 (≈ 4.19 µg/mL) | 8 (≈ 16.8 µg/mL) | 16 (≈ 33.5 µg/mL) | 16 (≈ 33.5 µg/mL) | 4 (≈ 8.38 µg/mL) | 4.0 (±2.54) % | 15.0 (± 1.62) % | – | – | – | 0.5 (≈ 1.05 µg/mL) | – | 0.5 (≈ 1.05 µg/mL) | 0.5 (≈ 1.05 µg/mL)
